# Test results as given in patent publication US20230027495A1, “METHODS OF TREATING CANCER WITH A COMBINATION OF AN ANTI-PD-1 ANTIBODY AND AN ANTI-TISSUE FACTOR ANTIBODY-DRUG CONJUGATE” (Genmab A/S, priority 2019, published 2023).
# Entries after “also recorded” stand apart in the source; their conditions may differ.
# What was measured:
# [1] = tested on: human peripheral blood mononuclear cells (PBMCs); experiment: T cell activation in CSFE labeled human PBMCs fed drug-killed MDA-MB-231 cells, with or without pembrolizumab; format: cell-based; conditions: PBMCs fed drug-exposed MDA-MB-231 cells, 48 hours
# Text: Induction of the innate immune response following exposure to cancer cells undergoing ICD sets up secondary T cell activation, which can be enhanced by concomitant pembrolizumab treatment.
# [2] = tested on: Tissue Factor positive cell lines; experiment: Cell death and ATP/HMGB1 release from Tissue Factor positive cell lines; format: cell-based; conditions: for activity across multiple Tissue Factor positive cell lines: release of ICD related molecules
# Text: Auristatin ADC payloads disrupt the microtubule networks resulting in altered ER localization and function, which ultimately results in ER stress.
# [3] = tested on: HPAFII (pancreatic carcinoma) and MDA-MB-231 (breast carcinoma) cells; experiment: Western blot of ER stress pathways in HPAFII and MDA-MB-231 cells; format: cell-based
# Method: Induction of cell death and release of ICD danger signals occurs concomitant with initiation of an ER stress response. Two Tissue Factor positive cell lines, HPAFII (pancreatic carcinoma) and MDA-MB-231 (breast cell carcinoma) were exposed to tisotumab vedotin ADC, an Isotype-MMAE ADC (H00-MMAE, IgG1 MMAE), or free MMAE for 18 hours and induction of ER stress monitored by western blot analysis. Phosphorylation of inositol-requiring transmembrane kinase/endonuclease 1 (IRE1) was detected after treatment with tisotumab vedotin ADC or MMAE free drug (FIG. 6). […] The ability for auristatins to prime the immune system to recognize tumor antigens opens the door for a myriad of combinatorial therapeutic options.
# [4] = tested on: murine tumor cells that stably express human TF; experiment: Immunization of Balb/c mice with drug-killed human TF positive murine tumor cells, then tumor challenge (syngeneic model); format: in vivo; conditions: mice immunized with drug-killed human TF positive tumor cells
# Method: Mouse tumor cells are transfected with plasmid constructs encoding human tissue factor (TF) and sgRNA-guided Cas9 nuclease (sgRNA/Cas9) to generate a murine cell line that expresses the human TF. Fluorescence activated cell sorting (FACS) yields a clonal population of murine tumor cells that stably express human TF, these cells are then treated with 1 μg to 5 μg per ml of tisotumab vedotin or 100 nM of MMAE for 4 days. In order to prepare dying cells for immunization, treated murine tumor cells are overlaid atop Histopaque, and centrifuged at 2000 g for 30 minutes. Dead and dying cells are pelleted underneath the Histopaque layer, and viability assessed by trypan blue exclusion. A sample with approximately <20% live cells as measured by trypan blue exclusion is obtained. Flash-frozen tumor cells are prepared by submerging the cells in liquid nitrogen for 10 seconds, followed by immersion in 37° C. water until completely thawed. The liquid nitrogen freeze-thaw process is repeated 5 times. Dead and dying human TF positive tumor cells are resuspended in phosphate buffered saline (PBS) and 2×10^6 cells are injected into the peritoneum of immune-competent Balb/c mice. Seven days later, mice receive a second immunization with dead and dying cells prepared in the same manner.
# Fourteen days after initial immunization with the dead and dying human TF positive tumor cells, mice are subcutaneously implanted with 5×10^6 wild-type tumor cells and monitored for tumor growth. […] As these effects occur in the absence of any administered therapeutic agent, the administration of cells killed by tisotumab vedotin or MMAE is sufficient to generate long-lasting protective immune memory against subsequent tumor cell challenge. Protective immune memory is amplified by treating these mice with tisotumab vedotin in combination with an antibody that binds to murine PD-1.
# MDA-MB-231 xenograft = MDA-MB-231 xenograft model in humanized NSG mice; format: in vivo
# Method: The in vivo anti-tumor efficacy of tisotumab vedotin in combination with an anti-PD-1 monoclonal antibody was evaluated in NOD.Cg-PrkdC^scid Il2rg^tm1Wj1/SzJ (NSG) immunodeficient mice (The Jackson Laboratory, Stock No. 005557), humanized by engraftment with human CD34^+ hematopoietic stem cells (Jackson Laboratories, Sacramento). Mice were subcutaneously inoculated with 5×10^6 MDA-MB-231 cells (breast adenocarcinoma; American Tissue Culture Collection (ATCC), cat. no. HTB-26), in 100 μL phosphate-buffered saline (PBS). Before inoculation, cells were cultured in DMEM with high glucose and HEPES without L-glutamine (Lonza, cat. no. BE12-709F), 10% (v/v) donor bovine serum with iron New Zealand Origin (Thermo Fisher Scientific, DBSI, cat. no. 10371-029), 2 mM L-glutamine (Lonza, cat. no. BE17-605E), 1 mM Na-pyruvate (Lonza, cat. no. BE13-115E), MEM non-essential amino acids (Life Technologies, cat. no. 11140) and 1% (v/v) penicillin/streptomycin (Lonza, cat. no. DE17-603E), in CellSTACK culture chambers (Corning, cat. no. 3313).
# Tumor size was determined by caliper measurement at least two times a week and tumor volume was calculated as 0.52×length×width^2. When tumors reached the size of 100 mm^3 mice were randomized in 7 groups (8 mice per treatment group) based on mouse cohort and tumor size (Table 1). Mice were treated with tisotumab vedotin alone (1 mg/kg or 0.5 mg/kg), intravenously, weekly for a maximum of five treatments, or in combination with an anti-PD-1 antibody (i.e., pembrolizumab, KEYTRUDA®, 50 mg concentrate, Merck & Co., Inc., Kenilworth, N.J. USA) or with anti-PD-1 antibody alone. The first dose of the anti-PD-1 antibody (i.e., pembrolizumab) was 10 mg/kg, followed by 5 mg/kg every five days for a maximum of six treatments. Mice in control groups were administered 1 mg/kg of IgG1 isotype control antibody or IgG1 isotype control antibody conjugated to MMAE intravenously, weekly for a maximum of five treatments (Table 1). The IgG1 isotype control antibody is the b12 antibody which is known to bind to HIV-1 gp120. […]
# [5] = tested on: relapsed, recurrent, and/or metastatic cervical cancer; conditions: cited from earlier work
# [6] = tested on: human peripheral blood mononuclear cells (PBMCs); experiment: Monocyte/macrophage activation in human PBMCs fed drug-killed MDA-MB-231 cells; format: cell-based
# Text: FIGS. 7A and 7B is a series of graphs in which Tissue Factor positive MDA-MB-231 cells killed with various agents were fed to human peripheral blood mononuclear cells (PBMCs) and immune activation assessed by increased expression of activations markers on innate CD14+ monocyte/macrophages and induction of chemokine and cytokine production.
# Immunogenic cell death, as mediated by MMAE, is regulated cell death that activates adaptive immune responses against antigens from dead and dying tumor cells, and allows for the generation of robust innate immune cell activation and subsequent cytotoxic T cell responses targeted towards specific tumor cell antigens. […] Furthermore, these monocyte/macrophages conditioned by ICD-killed cells promote activation of T cells, as evidenced by production of signature inflammatory cytokines associated with cytotoxic T cell responses.
# [7] = HPAFII and MDA-MB-231 cells, 18 hours
# [8] = subjects who received tisotumab vedotin
substance,measurement,setting,value
tisotumab,T cell proliferation (CSFE dilution),[1],did not elicit these responses
same,production of IFNγ,[1],did not elicit these responses
same,production of IL12p70,[1],did not elicit these responses
"tisotumab vedotin: antibody-drug conjugate comprising an antibody that binds to tissue factor (TF), a protease-cleavable linker, and the microtubule disrupting agent MMAE",T cell proliferation (CSFE dilution),[1],drove T cell proliferation
same,production of IFNγ,[1],increased; also recorded: production of T cell specific cytokines
same,production of IL12p70,[1],increased; also recorded: production of T cell specific cytokines
same,ATP secretion/release,[2]; Tissue Factor positive cells,drove robust A) ATP secretion; also recorded: release the ICD related molecules
same,HMGB1 release,[2]; Tissue Factor positive cells,HMGB1 release; also recorded: release the ICD related molecules
same,cell death,[2]; Tissue Factor positive cells,undergo cell death
same,activity across multiple Tissue Factor positive cell lines,[2],occurs across multiple Tissue Factor positive cell lines
same,activity across multiple Tissue Factor positive cell lines,[2]; listed as Tisotumab vedotin,active on multiple Tissue Factor positive cell lines
same,activation of JNK (phosphorylation),[3]; [7],increased phosphorylation
same,activation of PERK pathway (ATF4 cleavage),[3]; [7],upregulation of ATF4 cleavage
same,phosphorylation of IRE1,[3]; [7],detected
same,"activation of ER stress pathways (phosphorylation of IRE and JNK, cleavage of ATF4)","[3]; HPAFII or MDA-MB-231 cells, 16 hours",trigger multiple ER stress pathways
same,survival after challenge with wild-type tumor cells,[4],increased survival
same,tumor growth after challenge with wild-type tumor cells,[4],delayed tumor growth
same,tumor burden as assessed by tumor volume,MDA-MB-231 xenograft; tisotumab vedotin 0.5 mg/kg IV weekly,efficiently reduced tumor burden
same,tumor burden as assessed by tumor volume,MDA-MB-231 xenograft; tisotumab vedotin 1.0 mg/kg IV weekly,efficiently reduced tumor burden
same,efficacy,[5]; 2.0 mg/kg tisotumab vedotin,robust efficacy
same,safety profile,[5]; 2.0 mg/kg tisotumab vedotin,manageable safety profile
same,grade of epistaxis cases,[5]; nearly all of the cases,grade 1
same,grade of the majority of reported peripheral neuropathy cases,[5]; [8],grade 1-2
same,peripheral neuropathy as cause of permanent discontinuation,[5]; [8],leading cause of permanently discontinuation
same,subjects with peripheral neuropathy,[5]; [8],approximately 35%
same,AEs of grade 1-2 conjunctivitis,[5]; tisotumab vedotin alone,frequently reported
same,clinically relevant perturbations in aPTT or PT,[5]; tisotumab vedotin,have not been observed
same,epistaxis (bleeding AE) frequency,[5]; tisotumab vedotin,most common reported AE
same,monocyte/macrophage activation by CD86 expression,"[6]; CD14+ monocyte/macrophages, flow cytometry, PBMCs fed killed MDA-MB-231 cells, compared to IgG1-MMAE ADC or tisotumab alone",drove monocyte/macrophage activations
same,release of innate chemokines,"[6]; PBMCs fed killed MDA-MB-231 cells, compared to IgG1-MMAE ADC or tisotumab alone",induced release of innate chemokines including MIP10
same,chemotactic and inflammatory mediators from monocyte/macrophages,[6]; after uptake of killed Tissue Factor positive cells,elicit strong chemotactic and inflammatory mediators
